{
  "source": "PubChem BioAssay AID1259411",
  "about": "(Chemical Carcinogenesis Research Information System (CCRIS), 2018)",
  "tested_on": "rodent carcinogenicity bioassays, tumor incidence",
  "assay": "CCRIS carcinogenicity studies",
  "how_it_was_run": "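NCI-built, expert-reviewed records of carcinogenicity and related test outcomes (mutagenicity, tumor promotion/inhibition) compiled from published and report sources, historical span 1985-2011, not updated.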",
  "note": "The source made the active and inactive calls. The rule behind the calls is not given here.",
  "data": [
    {"smiles": "Nc1ccc(-c2ccc(F)cc2)cc1", "values": [
      {"measurement": "carcinogen call", "setting": "Species: MOUSE, Strain/Sex: CBA/FEMALE, Route: GAVAGE, Dose: 0, 0.05 ML OF 1% IN ARACHIS OIL 2/WK FOR 6 MO FOR AN ESTIMATED TOTAL DOSE OF 0, 13 MG (STUDY DURATION: 119 WK), Dose: 0, 0.05 ML OF 1% IN ARACHIS OIL 2/WK FOR 6 MO FOR AN ESTIMATED TOTAL DOSE OF 0, 13 MG (STUDY DURATION: 119 WK), Tumor Site: Type of Lesion: LIVER: HEPATOMA", "value": "active; positive"},
      {"measurement": "carcinogen call", "setting": "Species: MOUSE, Strain/Sex: CBA/MALE, Route: GAVAGE, Dose: 0, 0.05 ML OF 1% IN ARACHIS OIL 2/WK FOR 6 MO FOR AN ESTIMATED TOTAL DOSE OF 0, 13 MG (STUDY DURATION: 109 WK), Dose: 0, 0.05 ML OF 1% IN ARACHIS OIL 2/WK FOR 6 MO FOR AN ESTIMATED TOTAL DOSE OF 0, 13 MG (STUDY DURATION: 109 WK), Tumor Site: Type of Lesion: LIVER: HEPATOMA", "value": "active; positive"}
    ]},
    {"smiles": "CCOC(=O)C(C(=O)OCC)=C(NO)c1ccccc1", "values": [
      {"measurement": "carcinogen call", "setting": "Species: Mouse, Strain/Sex: Swiss Albino/Female (60/sex/group), Route: Oral, Dose: 0, 10, 30, 100 ppm in feed for 18 mo, Dose: 0, 10, 30, 100 ppm in feed for 18 mo", "value": "inactive; negative; purity 97%"},
      {"measurement": "carcinogen call", "setting": "Species: Mouse, Strain/Sex: Swiss Albino/Male (60/sex/group), Route: Oral, Dose: 0, 10, 30, 100 ppm in feed for 18 mo, Dose: 0, 10, 30, 100 ppm in feed for 18 mo, Tumor Site: Type of Lesion: Liver: Hepatocellular adenoma (2/47, 4/48, 3/49, 5/53), Hepatocellular carcinoma (0/47, 0/48, 2/49, 4/53), Combined (2/4, Tumor Site: Type of Lesion: Liver: Hepatocellular adenoma (2/47, 4/48, 3/49, 5/53), Hepatocellular carcinoma (0/47, 0/48, 2/49, 4/53), Combined (2/4", "value": "active; positive (statistically significant trend but not incidence); purity 97%"},
      {"measurement": "carcinogen call", "setting": "Species: Rat, Strain/Sex: Sprague-Dawley /Female (70/sex/group in dosed animals; 105 controls/sex), Route: Oral, Dose: 0, 60, 190, 600 ppm in feed for 104 wks, Dose: 0, 60, 190, 600 ppm in feed for 104 wks", "value": "inactive; negative: purity 98.5%; liver: nonneoplastic liver lesions (eosinophilic cellula"},
      {"measurement": "carcinogen call", "setting": "Species: Rat, Strain/Sex: Sprague-Dawley /Male (70/sex/group in dosed animals; 105 controls/sex), Route: Oral, Dose: 0, 60, 190, 600 ppm in feed for 104 wks, Dose: 0, 60, 190, 600 ppm in feed for 104 wks", "value": "inactive; negative: purity 98.5%; liver: nonneoplastic liver lesions (eosinophilic cellula"}
    ]},
    {"smiles": "CCCI", "values": [
      {"measurement": "carcinogen call", "setting": "Species: MOUSE, Route: INTRAPERITONEAL, Tumor Site: Type of Lesion: LUNG", "value": "active; positive"}
    ]},
    {"smiles": "Cc1cc2ccccc2c2ccc3c(c12)[C@H]1O[C@H]1[C@@H](O)[C@H]3O", "values": [
      {"measurement": "carcinogen call", "setting": "Species: MOUSE, Strain/Sex: ICR/FEMALE, Route: INTRAPERITONEAL, Dose: 8 NMOL/5 µL DMSO ON DAY 1, 16 NMOL/10 µL ON DAY 8, AND 32 NMOL/20 µL ON DAY 15 OF AGE (STUDY DURATION: 35 WK), Tumor Site: Type of Lesion: LUNG: TUMORS", "value": "active; positive"},
      {"measurement": "carcinogen call", "setting": "Species: MOUSE, Strain/Sex: ICR/MALE, Route: INTRAPERITONEAL, Dose: 8 NMOL/5 µL DMSO ON DAY 1, 16 NMOL/10 µL ON DAY 8, AND 32 NMOL/20 µL ON DAY 15 OF AGE (STUDY DURATION: 35 WK), Tumor Site: Type of Lesion: LIVER: TUMORS", "value": "active; positive"}
    ]},
    {"smiles": "OB(O)O", "values": [
      {"measurement": "carcinogen call", "setting": "Species: MOUSE, Strain/Sex: B6C3F1/FEMALE, Route: ORAL, Dose: 0, 2500, 5000 PPM IN DIET FOR 103 WK (STUDY DURATION: 105 WK), Dose: 0, 2500, 5000 PPM IN DIET FOR 103 WK (STUDY DURATION: 105 WK)", "value": "inactive; negative"},
      {"measurement": "carcinogen call", "setting": "Species: MOUSE, Strain/Sex: B6C3F1/MALE, Route: ORAL, Dose: 0, 2500, 5000 PPM IN DIET FOR 103 WK (STUDY DURATION: 105 WK), Dose: 0, 2500, 5000 PPM IN DIET FOR 103 WK (STUDY DURATION: 105 WK)", "value": "inactive; negative"}
    ]},
    {"smiles": "c1ccoc1", "values": [
      {"measurement": "carcinogen call", "setting": "Species: MOUSE, Strain/Sex: B6C3F1/FEMALE, Route: GAVAGE, Dose: 0, 8, 15 MG/KG IN CORN OIL 5 D/WK FOR 104 WK (STUDY DURATION: 105 WK), Dose: 0, 8, 15 MG/KG IN CORN OIL 5 D/WK FOR 104 WK (STUDY DURATION: 105 WK), Tumor Site: Type of Lesion: ADRENAL MEDULLA: BENIGN PHEOCHROMOCYTOMA, LIVER: HEPATOCELLULAR ADENOMA, HEPATOCELLULAR CARCINOMA", "value": "active; positive"},
      {"measurement": "carcinogen call", "setting": "Species: MOUSE, Strain/Sex: B6C3F1/MALE, Route: GAVAGE, Dose: 0, 8, 15 MG/KG IN CORN OIL 5 D/WK FOR 104 WK (STUDY DURATION: 105 WK), Dose: 0, 8, 15 MG/KG IN CORN OIL 5 D/WK FOR 104 WK (STUDY DURATION: 105 WK), Tumor Site: Type of Lesion: ADRENAL MEDULLA: BENIGN PHEOCHROMOCYTOMA, LIVER: HEPATOCELLULAR ADENOMA, HEPATOCELLULAR CARCINOMA", "value": "active; positive"},
      {"measurement": "carcinogen call", "setting": "Species: MOUSE, Strain/Sex: B6C3F1/MALE, Route: INTRAPERITONEAL, Dose: 0, 200 MG/KG BW ONCE EACH ON POSTNATAL DAYS 3, 6, 9, 12, 15 AND 18 (STUDY DURATION: 95 WK), Tumor Site: Type of Lesion: LIVER: ADENOMA OR CARCINOMA", "value": "active; positive"},
      {"measurement": "carcinogen call", "setting": "Species: MOUSE, Strain/Sex: B6C3F1/MALE, Route: INTRAPERITONEAL, Dose: 0, 400 MG/KG BW ONCE ON POSTNATAL DAY 15 (STUDY DURATION: 95 WK)", "value": "inactive; negative"},
      {"measurement": "carcinogen call", "setting": "Species: RAT, Strain/Sex: B6C3F1/FEMALE, Route: GAVAGE, Dose: 0, 2, 4, 8 MG/KG IN CORN OIL 5 D/WK FOR 103 WK (STUDY DURATION: 104 WK), Dose: 0, 2, 4, 8 MG/KG IN CORN OIL 5 D/WK FOR 103 WK (STUDY DURATION: 104 WK), Tumor Site: Type of Lesion: LIVER: CHOLANGIOCARCINOMA, HEPATOCELLULAR ADENOMA OR CARCINOMA, HEMATOPOIETIC SYSTEM: MONONUCLEAR CELL LEUKEMIA", "value": "active; positive"},
      {"measurement": "carcinogen call", "setting": "Species: RAT, Strain/Sex: F344/MALE, Route: GAVAGE, Dose: 0, 2, 4, 8 MG/KG IN CORN OIL 5 D/WK FOR 103 WK (STUDY DURATION: 104 WK), Dose: 0, 2, 4, 8 MG/KG IN CORN OIL 5 D/WK FOR 103 WK (STUDY DURATION: 104 WK), Tumor Site: Type of Lesion: LIVER:CHOLANGIOCARCINOMA, HEPATOCELLULAR ADENOMA, HEPATOCELLULAR CARCINOMA, HEMATOPOIETIC SYSTEM: MONONUCLEAR CELL LEUKE", "value": "active; positive"}
    ]},
    {"smiles": "CCC(C)[N+](=O)[O-]", "note": "(stereo not given)", "values": [
      {"measurement": "carcinogen call", "setting": "Species: RAT, Strain/Sex: F344/MALE, Route: GAVAGE, Dose: 0, 2 MMOL/KG BW 1/WK FOR 50 WK (STUDY DURATION: 83 WK), Tumor Site: Type of Lesion: LIVER: CARCINOMA", "value": "active; positive"}
    ]},
    {"smiles": "O=C[C@H](O)[C@@H](O)[C@H](O)CO", "values": [
      {"measurement": "carcinogen call", "setting": "Species: RAT, Strain/Sex: FISCHER 344/MALE, FEMALE (50/GROUP), Route: DIET, Dose: 0, 2.5, 5% IN DIET FOR 104 WKS (STUDY DURATION: 104 WKS), Dose: 0, 2.5, 5% IN DIET FOR 104 WKS (STUDY DURATION: 104 WKS)", "value": "inactive; negative"}
    ]},
    {"smiles": "C1CN1c1nc(N2CC2)nc(N2CC2)n1", "values": [
      {"measurement": "carcinogen call", "setting": "Species: MOUSE, Route: INTRAPERITONEAL, Tumor Site: Type of Lesion: OVARIES, LUNG, THYMUS GLAND, Tumor Site: Type of Lesion: OVARIES, LUNG, THYMUS GLAND", "value": "active; positive"}
    ]}
  ]
}
